The values below are quoted from earlier work in paper PMC7114187 (Antiviral Research, 2008).

In the series the test system is NA^WT(WSN) with H274Y mutation. As to conditions: cited from earlier work.

Turning to `CCOC(=O)C1=C[C@@H](OC(CC)CC)[C@H](NC(C)=O)[C@@H](N)C1` [Oseltamivir, oseltamivir], the “fold increase in the IC50 by H274Y mutation” value was 754 fold.
